The source of these data is patent US10980739B2, “Treatment of a disease of the gastrointestinal tract with a chemokine/chemokine receptor inhibitor” (Progenity, Inc., priority 2016, dated 2021).

Each structure is given as a SMILES string.

The series in a line: Tacrolimus tissue pharmacokinetics, oral versus intra-cecal ingestible device delivery. It is filed as in vivo, Yorkshire-Cross farm swine. The conditions noted are these: swine, intra-cecal ingestible device vs oral, 12 hours post-dose; FIG. 76. On the procedure:
No further randomization procedure was employed.
Animals in Group 1 received an ingestible device containing 0.8 mL of vehicle solution (80% alcohol, 20% HCO-60). Animals in Group 2 received orally […] liquid formulation of tacrolimus at 4 mg/0.8 mL per animal (Prograf: 5 mg/mL). Animals in Group 3 received intra-cecally an ingestible device containing tacrolimus at 1 mg in 0.8 mL per ingestible device. Animals in Group 4 received intra-cecally an ingestible device containing tacrolimus at 2 mg in 0.8 mL per ingestible device. Animals in Group 5 received intra-cecally an ingestible device containing tacrolimus at 4 mg in 0.8 mL per ingestible device. […]
Approximately 200˜400 mg of rectal content were collected, if available, with a fecal swab (Copan Diagnostics Nylon Flocked Dry Swabs, 502CS01). The fecal swab was pre-weighed and weighed after collection in the collection tube (Sterile Tube and Cap No Media, PFPM913S), and the sample weight was recorded. […]
For tissue necropsy, small intestine fluid and cecal fluid were collected separately from all the animals into two separate square plastic bottles, and stored at −20° C. The length and diameter of the cecum and the colon was measured from one animal in each group and recorded for reference. […] All samples were weighed, and the tissue sample weights were recorded. […]

For the molecule `C=CC[C@@H]1/C=C(\C)C[C@H](C)C[C@H](OC)[C@H]2O[C@@](O)(C(=O)C(=O)N3CCCC[C@H]3C(=O)O[C@H](/C(C)=C/[C@@H]3CC[C@@H](O)[C@H](OC)C3)[C@H](C)[C@@H](O)CC1=O)[C@H](C)C[C@@H]2OC` [tacrolimus], the “mean concentration of tacrolimus in the cecum tissue and the proximate colon tissue” value was “higher”.
